Two compounds from EP1213583A1, “General method for the covalent immobilisation of indicators in, or onto a support useful for the fabrication of optical sensors” (Innosense S.r.l., priority 2000, dated 2002) can be followed below.

Molecules are shown by their SMILES. Read-outs that look alike come from different tables or passages of the source.

The data set in a line: pKa determination from absorbance or reflectance spectra vs. pH (four parameter sigmoid fit). The note with it: 25°C, 0.9% NaCl. The class given is physicochemical. The method, then:
Preferred embodiments of the Invention are illustrated by the following examples. In all cases pKa values of the indicators were obtained at 25°C and constant ionic strength (0.9% NaCl, with buffers at 0.01 M). Absorbance or reflectance spectra of the dyed substrates were taken using a Shimadzu UV-VIS-NIR spectrophotometer model 3101PC or an Ocean Optics PC1000 optical fibre spectrophotometer. pKa data were obtained by plotting the function λb-λ850nm/λa-λ850nm vs. pH, where λb is the absorbance or reflectance at the absorption maximum of the basic form of the indicator dye, λa is absorbance or reflectance at the absorption maximum of the acid form of the indicator dye and λ850nm is the absorption or reflectance at 850 nm. The plots were analysed by fitting the data with the four parameter sigmoid function, f = (a - d)/[1 + (x/c)^b] + d, where a is the asymptotic maximum, b is the slope, c is the pH at inflection or pKa and d is the asymptotic minimum. The fitting was performed using the Marquardt-Levenberg nonlinear least-squares method.

The mark [1] stands for this setting: immobilised by Mannich reaction in Biodyne B nylon 6,6 membrane.

`O=[N+]([O-])c1ccc(N=Nc2c(S(=O)(=O)[O-])cc(O)c3ccc(S(=O)(=O)[O-])cc23)c([N+](=O)[O-])c1.[Na+].[Na+]` [nitrazine yellow, 4-(2',4'-dinitrophenylazo)-1-hydroxynaphthalene-3,6-disulfonic acid disodium salt] showed a pKa under setting [1] of 5.41. For the same compound, the “solution pKa” value (indicator in solution) stood at 6.60.
Turning to `O=S1(=O)OC(c2ccc(O)cc2)(c2ccc(O)cc2)c2ccccc21` [phenol red], the pKa runs as follows: (immobilised by Mannich reaction in Biodyne A nylon 6,6 membrane) 9.64; under setting [1], 8.68; (immobilised by Mannich reaction on LoProdyne nylon 6,6 membrane modified with 1,6-diaminohexane) 9.86; (indicator in solution, read-out: solution pKa) 8.
